Data: patent US12630565B2, “DNA-dependent protein kinase inhibitor” (DIZAL (JIANGSU) PHARMACEUTICAL CO., LTD., priority 2019, dated 2026)

Experiments:
[1] = test system: MDR1, BCRP; assay: MDCKII-MDR1-BCRP efflux assay; type: in vitro ADME; settings: dog, pH 7.4, 5 μM compound, HBSS pH 7.4, read-out: MDCK-Mdr1-BCRP efflux ratio
Outline: (§1)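 Bidirectional (A-B, B-A) transport of 5 μM compound across MDCKII-MDR1-BCRP monolayers in HBSS, 25 mM HEPES pH 7.4, ~37° C. for 120 min, triplicate; donor and receiver concentrations measured, monolayer integrity checked with Lucifer yellow. Papp and efflux ratio calculated.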

[2] = test system: Rat hepatocyte; assay: Metabolic stability assay (rat hepatocyte Clint); type: in vitro ADME; settings: 1 μM compound, cryopreserved hepatocytes 1 million cells per mL
Outline: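 Compound at 1 μM incubated with cryopreserved rat hepatocytes, 1 million cells/mL, sampled 0–120 min with acetonitrile quench and LC-MS/MS quantitation. CLint (μL/min/E6) derived from elimination rate constant and half-life of parent disappearance, scaled by cell concentration.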

[3] = Metabolic stability assay (human microsomal Clint); type: in vitro ADME; settings: 1 mg/mL microsomes, 1 mM NADPH, 37° C.; for microsomal CLint at 1 μM: human, pooled human liver microsomes, pH 7.4, 1 μM compound; for Human liver microsomal CLint: 1 μM compound
Outline: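 Compound (1 μM) incubated at 37 °C with pooled human liver microsomes (1 mg/mL) and 1 mM NADPH in 100 mM phosphate, pH 7.4. Samples quenched in acetonitrile at 0–30 min and analysed by LC-MS/MS for parent loss. CLint reported in μl/min/mg.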

[4] = Brain-blood-barrier penetration assay (short oral absorption model, Kp,uu); type: in vivo; settings: male, Han Wistar, rat, brain and plasma, po, 10 mg/kg, male Han Wistar rats, oral 10 mg/kg in 1% methylcellulose; AUC(brain)/AUC(plasma)×(fu,brain/fu.plasma)
Description: It is believed that Kp,uu, the relationship between concentrations of unbound drug in brain and in plasma, is the key to prediction of CNS action and should be the main parameter measured and optimized for in drug discovery (Di L et al., Journal of Medicinal Chemistry [2013], 56: 2-12).
In vitro plasma and brain binding assay was carried out by using equilibrium dialysis method with semi-permeable membrane. Plasma and diluted brain homogenate (1:4 with DPBS pH7.4) were spiked with 5 μM test compound (in triplicate) and dialyzed against equal volume of 150 μL 100 mM PBS buffer (pH7.4) at 37° C. for 18 hours in a slowly rotated plate. At the end of incubation, a 50 μL aliquot from the receiver side and a 5 μL from the donor chamber were taken. The 5 μL sample was further diluted with 45 μL of blank plasma or brain homogenate. Paired samples were matrix-matched with either buffer or blank plasma/brain homogenate and mixed for 2 min, and then precipitated with 150 μL cold acetonitrile with 100 ng/mL tolbutamide as internal standard. After centrifuging at 4000 rpm for 20 min, supernatant was diluted with 0.1% formic acid aqueous solution and analyzed for LC/MS/MS (API 4000, Applied Biosystems, Foster City). Unbound fraction (fu) of test compound in the brain homogenate and diluted plasma were calculated by the ratio of the buffer side response to the brain homogenate/plasma side response, and unbound fraction (fu,pl and fu,br) of test compound in non-diluted plasma and tissue were calculated from measured fu in homogenate and plasma with the following equation: fu,bl (fu,br)=(1/D)/[(1/fu−1)+1/D)]. D is dilution factor.
A Short oral absorption (SOA) model is an in-vivo screening model to identify brain penetration of a compound. Six male Han Wistar rats purchased from Beijing Vital River were orally dosed with the compound at 10 mg/kg in 1% methylcellulose At 0.5, 1, 2, 4, 7 and 16 hour post-dose, cerebral spinal fluid (CSF) was collected from cisterna magna. Plasma samples will be processed for plasma by centrifugation at approximately 4° C., 3,000 g within half an hour of collection. Plasma samples will be removed to a labeled tube and stored at −80 degree until analysis. Brain tissue was harvested and homogenized in 3× volume of 100 mM phosphate buffered saline (pH7.4). All samples were stored at ˜−70° C. prior to LC/MS/MS analysis.
Standards were prepared by spiking blank plasma, brain homogenate and artificial CSF covering 0.5 to 500 ng/mL. Homogenized brain tissue along with plasma samples were precipitated by adding 3-fold volume of cold acetonitrile containing internal standard (40 ng/mL Dexamethasone and 40 ng/mL Diclofenac), and 10 μL of CSF samples were precipitated with 100 μL of cold acetonitrile containing internal standard. After 2 min vortex and 5 min centrifugation at 14,000 rpm, supernatant was analyzed by LC/MS/MS (API 4000, Applied Biosystems, Foster City). Two sets of standard curves were run at the beginning and end of each batch from plasma sample analysis. For brain and CSF samples, one standard curve was analyzed along with test samples.
Total brain levels, expressed as brain/plasma ratio (Kp) were measured by AUCbrain/AUCplasma in rodents after oral administration. Free fraction of test compound in biological matrix was determined by in vitro plasma and brain binding assay. Kp,uu was calculated by the following equation: Kp,uu=AUC (brain)/AUC (plasma)×(fu,brain/fu.plasma).

[5] = molecular target: Full length human DNAPK protein (Homo sapiens, UniProt P78527); assay: DNA-PK enzymatic assay (TR-FRET); type: biochemical; settings: 10 μM ATP, 1.6 μM peptide substrate
[6] = test system: MDCKII-MDR1-BCRP cell monolayers; assay: MDCKII-MDR1-BCRP efflux assay; type: in vitro ADME; settings: 5 μM compound, 120 min, HBSS pH 7.4
Outline: as §1

Row | efflux ratio at 120 min, 5 μM [1] | Rat hepatocyte CLint (μl/min/10^−6 cells) [2] [μl/min/10^−6 cells] | microsomal CLint at 1 μM [3] [µL/min/mg] | Kp uu [4] | IC50 [5] [nM] | MDCK-Mdr1-BCRP efflux ratio [6] | Human liver microsomal CLint [3] [µL/min/mg] | SMILES
1 | 2.3 | 7.5 | 75.1 | 0.1 | 0.8 | – | – | CO[C@H]1CC[C@H](c2nn(C)c3cnc(Nc4cn5ncnc5cc4C)nc32)CC1 [Example 7, 3-((1r,4r)-4-methoxycyclohexyl)-1-methyl-N-(7-methyl-[1,2,4]triazolo[1,5-a]pyridin-6-yl)-1H-pyrazolo[4,3-d]pyrimidin-5-amine]
2 | 1.4 | 5.5 | 72.3 | 0.1 | 0.4 | – | – | CO[C@H]1CC[C@H](n2nc(C)c3cnc(Nc4cn5ncnc5cc4C)nc32)CC1 [Example 24, 1-((1r,4r)-4-methoxycyclohexyl)-3-methyl-N-(7-methyl-[1,2,4]triazolo[1,5-a]pyridin-6-yl)-1H-pyrazolo[3,4-d]pyrimidin-6-amine]
3 | 3.3 | 3.0 | 12.7 | 0.14 | 1.4 | – | – | Cc1cc2nccn2cc1Nc1ncc2c(n1)c(C1CCOCC1)nn2C [Example 2, 1-methyl-N-(7-methylimidazo[1,2-a]pyridin-6-yl)-3-(tetrahydro-2H-pyran-4-yl)-1H-pyrazolo[4,3-d]pyrimidin-5-amine]
4 | 5.9 | 5.4 | 19.8 | 0.17 | 0.8 | – | – | Cc1cc2ncnn2cc1Nc1ncc2c(n1)c(C1CCOCC1)nn2C [Example 1, 1-methyl-N-(7-methyl-[1,2,4]triazolo[1,5-a]pyridin-6-yl)-3-(tetrahydro-2H-pyran-4-yl)-1H-pyrazolo[4,3-d]pyrimidin-5-amine]
5 | 1.3 | 10.0 | 102 | 0.08 | 1.4 | – | – | Cc1cc2ncnn2cc1Nc1ncc2c(C)nn(C3CCC(F)(F)CC3)c2n1 [Example 21, 1-(4,4-difluorocyclohexyl)-3-methyl-N-(7-methyl-[1,2,4]triazolo[1,5-a]pyridin-6-yl)-1H-pyrazolo[3,4-d]pyrimidin-6-amine]
6 | – | 11.9 | – | – | 4 | 2 | 87.2 | COC1CCC(n2nc(C)c3cnc(Nc4cn5ncnc5cc4C)nc32)C1 (single isomer, unassigned) [Example 109, 1-(3-methoxycyclopentyl)-3-methyl-N-(7-methyl-[1,2,4]triazolo[1,5-a]pyridin-6-yl)-1H-pyrazolo[3,4-d]pyrimidin-6-amine]
7 | – | 9.1 | – | – | 1.8 | 1.8 | 50.4 | Cc1cc2ncnn2cc1Nc1ncc2c(C)nn(C3CCOC(C)(C)C3)c2n1 (single isomer, unassigned) [Example 117, 1-(2,2-dimethyltetrahydro-2H-pyran-4-yl)-3-methyl-N-(7-methyl-[1,2,4]triazolo[1,5-a]pyridin-6-yl)-1H-pyrazolo[3,4-d]pyrimidin-6-amine]
8 | – | 8.2 | – | – | 3.2 | 4 | 60.5 | Cc1cc2ncnn2cc1Nc1ncc2c(C)nn(C3CCOCC3C)c2n1 (single isomer, unassigned) [Example 113, 3-methyl-N-(7-methyl-[1,2,4]triazolo[1,5-a]pyridin-6-yl)-1-(3-methyltetrahydro-2H-pyran-4-yl)-1H-pyrazolo[3,4-d]pyrimidin-6-amine]
9 | – | 42.7 | – | – | 3 | 0.9 | >300 | Cc1cc2ncnn2cc1Nc1ncc2c(C)nn(C3CC(C)OC(C)C3)c2n1 (single isomer, unassigned) [Example 86-1, 1-(2,6-dimethyltetrahydro-2H-pyran-4-yl)-3-methyl-N-(7-methyl-[1,2,4]triazolo[1,5-a]pyridin-6-yl)-1H-pyrazolo[3,4-d]pyrimidin-6-amine]
10 | – | 11.6 | – | – | 1.4 | 2.1 | 51.5 | Cc1cc2ncnn2cc1Nc1ncc2c(C)nn(C3CCOC(C)C3)c2n1 (single isomer, unassigned) [Example 36, 3-methyl-N-(7-methyl-[1,2,4]triazolo[1,5-a]pyridin-6-yl)-1-(2-methyltetrahydro-2H-pyran-4-yl)-1H-pyrazolo[3,4-d]pyrimidin-6-amine]
11 | 2.7 | 4.5 | 13.9 | 0.3 | 1.3 | – | – | Cc1cc2ncnn2cc1Nc1ncc2c(C)nn([C@@H]3C[C@H]4CC[C@@H](C3)O4)c2n1 [Example 107, 1-((1R,3s,5S)-8-oxabicyclo[3.2.1]octan-3-yl)-3-methyl-N-(7-methyl-[1,2,4]triazolo[1,5-a]pyridin-6-yl)-1H-pyrazolo[3,4-d]pyrimidin-6-amine]
12 | – | <1 | – | – | 1.7 | 3.4 | 8.7 | Cc1cc2ncnn2cc1Nc1ncc2c(C)nn(C3CCOC3)c2n1 (single isomer, unassigned) [Example 49, 3-methyl-N-(7-methyl-[1,2,4]triazolo[1,5-a]pyridin-6-yl)-1-(tetrahydrofuran-3-yl)-1H-pyrazolo[3,4-d]pyrimidin-6-amine]
13 | – | 7.7 | – | – | 1.9 | 2 | 53.5 | Cc1cc2ncnn2cc1Nc1ncc2c(C)nn(C3CCOCC3C)c2n1 (single isomer, unassigned) [Example 115, 3-methyl-N-(7-methyl-[1,2,4]triazolo[1,5-a]pyridin-6-yl)-1-(3-methyltetrahydro-2H-pyran-4-yl)-1H-pyrazolo[3,4-d]pyrimidin-6-amine]
14 | – | 8.5 | – | – | 1.7 | 2 | 50.4 | Cc1cc2ncnn2cc1Nc1ncc2c(C)nn(C3CCOCC3C)c2n1 (single isomer, unassigned) [Example 114, 3-methyl-N-(7-methyl-[1,2,4]triazolo[1,5-a]pyridin-6-yl)-1-(3-methyltetrahydro-2H-pyran-4-yl)-1H-pyrazolo[3,4-d]pyrimidin-6-amine]
